Measured values as given in PubChem BioAssay (NCI).
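Test compounds were applied to cells in 96-well plates for 48 hours at 5 doses. GI50 = concentration required for 50% inhibition of growth. At the TGI there is no net growth.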

Key:
Test in all cases: DTP human tumour cell line panel, 48 h
786-0 renal = tested on: 786-0 renal
A498 renal = tested on: A498 renal
A549 NSCLC = tested on: A549 NSCLC
ACHN renal = tested on: ACHN renal
BT-549 breast = tested on: BT-549 breast
CAKI-1 renal = tested on: CAKI-1 renal
CCRF-CEM leukemia = tested on: CCRF-CEM leukemia
COLO 205 colon = tested on: COLO 205 colon
DU-145 prostate = tested on: DU-145 prostate
EKVX NSCLC = tested on: EKVX NSCLC
HCC-2998 colon = tested on: HCC-2998 colon
HCT-116 colon = tested on: HCT-116 colon
HCT-15 colon = tested on: HCT-15 colon
HL-60(TB) leukemia = tested on: HL-60(TB) leukemia
HOP-62 NSCLC = tested on: HOP-62 NSCLC
HOP-92 NSCLC = tested on: HOP-92 NSCLC
HS 578T breast = tested on: HS 578T breast
HT29 colon = tested on: HT29 colon
IGROV1 ovarian = tested on: IGROV1 ovarian
K-562 leukemia = tested on: K-562 leukemia
KM12 colon = tested on: KM12 colon
LOX IMVI melanoma = tested on: LOX IMVI melanoma
M14 melanoma = tested on: M14 melanoma
MALME-3M melanoma = tested on: MALME-3M melanoma
MCF7 breast = tested on: MCF7 breast
MDA-MB-231 breast = tested on: MDA-MB-231 breast
MDA-MB-435 = tested on: MDA-MB-435
MOLT-4 leukemia = tested on: MOLT-4 leukemia
NCI-H226 lung = tested on: NCI-H226 lung
NCI-H23 lung = tested on: NCI-H23 lung
NCI-H460 lung = tested on: NCI-H460 lung
NCI-H522 lung = tested on: NCI-H522 lung
NCI/ADR-RES ovarian = tested on: NCI/ADR-RES ovarian
OVCAR-3 ovarian = tested on: OVCAR-3 ovarian
OVCAR-4 ovarian = tested on: OVCAR-4 ovarian
OVCAR-5 ovarian = tested on: OVCAR-5 ovarian
OVCAR-8 ovarian = tested on: OVCAR-8 ovarian
PC-3 prostate = tested on: PC-3 prostate
RPMI-8226 leukemia = tested on: RPMI-8226 leukemia
RXF 393 renal = tested on: RXF 393 renal
SF-268 CNS = tested on: SF-268 CNS
SF-295 CNS = tested on: SF-295 CNS
SF-539 CNS = tested on: SF-539 CNS
SK-MEL-2 melanoma = tested on: SK-MEL-2 melanoma
SK-MEL-28 melanoma = tested on: SK-MEL-28 melanoma
SK-MEL-5 melanoma = tested on: SK-MEL-5 melanoma
SK-OV-3 ovarian = tested on: SK-OV-3 ovarian
SN12C renal = tested on: SN12C renal
SNB-19 CNS = tested on: SNB-19 CNS
SNB-75 CNS = tested on: SNB-75 CNS
SR leukemia = tested on: SR leukemia
SW-620 colon = tested on: SW-620 colon
T-47D breast = tested on: T-47D breast
TK-10 renal = tested on: TK-10 renal
U251 CNS = tested on: U251 CNS
UACC-257 melanoma = tested on: UACC-257 melanoma
UACC-62 melanoma = tested on: UACC-62 melanoma
UO-31 renal = tested on: UO-31 renal

Which GI50 (786-0 renal) does the source give for `CCCCCC(=O)O[C@]1(C(C)=O)CCC2C3CCC4=CC(=O)CC[C@]4(C)C3CC[C@@]21C` (stereo partly specified) here?
The GI50 was 2.71 µM.

And the TGI (786-0 renal)?
The TGI was 8.73 µM.

And the GI50 (A498 renal)?
Its GI50 is 1.3 µM.

What about the TGI (A498 renal) of the same compound?
Its TGI is 3.88 µM.

What about the GI50 (A549 NSCLC) of the same compound?
Its GI50 is 2.78 µM.

What about the TGI (A549 NSCLC) of the same compound?
The TGI was 15.9 µM.

And the GI50 (ACHN renal)?
Its GI50 is 3 µM.

What about the TGI (ACHN renal) of the same compound?
The TGI was 11.6 µM.

What about the GI50 (BT-549 breast) of the same compound?
The GI50 was 2.49 µM.

And the TGI (BT-549 breast)?
The TGI was 4.71 µM.

And the GI50 (CAKI-1 renal)?
Its GI50 is 1.75 µM.

And the TGI (CAKI-1 renal)?
The TGI was 8.22 µM.

And the GI50 (CCRF-CEM leukemia)?
The GI50 was 2.3 µM.

And the TGI (CCRF-CEM leukemia)?
Its TGI is 5.83 µM.

What about the GI50 (COLO 205 colon) of the same compound?
Its GI50 is 2.13 µM.

What about the TGI (COLO 205 colon) of the same compound?
The TGI was 4.04 µM.

And the GI50 (DU-145 prostate)?
Its GI50 is 3.56 µM.

What about the TGI (DU-145 prostate) of the same compound?
The TGI was 13.4 µM.

And the GI50 (EKVX NSCLC)?
Its GI50 is 2.91 µM.

And the TGI (EKVX NSCLC)?
Its TGI is 20.2 µM.

What about the GI50 (HCC-2998 colon) of the same compound?
Its GI50 is 2.55 µM.

And the TGI (HCC-2998 colon)?
Its TGI is 7.56 µM.

What about the GI50 (HCT-116 colon) of the same compound?
The GI50 was 1.75 µM.

And the TGI (HCT-116 colon)?
Its TGI is 4.23 µM.

And the GI50 (HCT-15 colon)?
The GI50 was 3.22 µM.

And the TGI (HCT-15 colon)?
The TGI was 12.6 µM.

And the GI50 (HL-60(TB) leukemia)?
The GI50 was 2.25 µM.

What about the TGI (HL-60(TB) leukemia) of the same compound?
Its TGI is 4.7 µM.

And the GI50 (HOP-62 NSCLC)?
The GI50 was 3.33 µM.

And the TGI (HOP-62 NSCLC)?
The TGI was 10.9 µM.

And the GI50 (HOP-92 NSCLC)?
Its GI50 is 0.766 µM.

And the TGI (HOP-92 NSCLC)?
The TGI was 3.31 µM.

And the GI50 (HS 578T breast)?
The GI50 was 0.421 µM.

What about the TGI (HS 578T breast) of the same compound?
The TGI was greater than 50.5 µM.

And the GI50 (HT29 colon)?
The GI50 was 2.59 µM.

And the TGI (HT29 colon)?
Its TGI is 7.88 µM.

And the GI50 (IGROV1 ovarian)?
Its GI50 is 2.7 µM.

What about the TGI (IGROV1 ovarian) of the same compound?
Its TGI is 11.4 µM.

And the GI50 (K-562 leukemia)?
Its GI50 is 3.19 µM.

What about the TGI (K-562 leukemia) of the same compound?
The TGI was 21.9 µM.

And the GI50 (KM12 colon)?
The GI50 was 2.24 µM.

And the TGI (KM12 colon)?
The TGI was 5.24 µM.

What about the GI50 (LOX IMVI melanoma) of the same compound?
Its GI50 is 1.67 µM.

And the TGI (LOX IMVI melanoma)?
The TGI was 3.14 µM.

And the GI50 (M14 melanoma)?
The GI50 was 2.55 µM.

What about the TGI (M14 melanoma) of the same compound?
Its TGI is 6.85 µM.

What about the GI50 (MALME-3M melanoma) of the same compound?
The GI50 was 2.18 µM.

And the TGI (MALME-3M melanoma)?
Its TGI is 6.05 µM.

And the GI50 (MCF7 breast)?
Its GI50 is 2.51 µM.

What about the TGI (MCF7 breast) of the same compound?
Its TGI is 8.39 µM.

And the GI50 (MDA-MB-231 breast)?
The GI50 was 2.49 µM.

And the TGI (MDA-MB-231 breast)?
Its TGI is 7.88 µM.

And the GI50 (MDA-MB-435)?
Its GI50 is 3.25 µM.

And the TGI (MDA-MB-435)?
The TGI was 13.1 µM.

What about the GI50 (MOLT-4 leukemia) of the same compound?
The GI50 was 2.21 µM.

And the TGI (MOLT-4 leukemia)?
Its TGI is 5.17 µM.

And the GI50 (NCI-H226 lung)?
Its GI50 is 1.8 µM.

And the TGI (NCI-H226 lung)?
Its TGI is 4.78 µM.

What about the GI50 (NCI-H23 lung) of the same compound?
The GI50 was 2.46 µM.

And the TGI (NCI-H23 lung)?
The TGI was 9.97 µM.

What about the GI50 (NCI-H460 lung) of the same compound?
Its GI50 is 2.31 µM.

And the TGI (NCI-H460 lung)?
The TGI was 8.59 µM.

And the GI50 (NCI-H522 lung)?
The GI50 was 1.88 µM.

And the TGI (NCI-H522 lung)?
The TGI was 5.63 µM.

And the GI50 (NCI/ADR-RES ovarian)?
Its GI50 is 2.11 µM.

And the TGI (NCI/ADR-RES ovarian)?
The TGI was 8.42 µM.

What about the GI50 (OVCAR-3 ovarian) of the same compound?
Its GI50 is 1.9 µM.

And the TGI (OVCAR-3 ovarian)?
The TGI was 3.9 µM.

What about the GI50 (OVCAR-4 ovarian) of the same compound?
Its GI50 is 2.03 µM.

And the TGI (OVCAR-4 ovarian)?
Its TGI is 11.6 µM.

What about the GI50 (OVCAR-5 ovarian) of the same compound?
The GI50 was 5.04 µM.

And the TGI (OVCAR-5 ovarian)?
The TGI was 22.3 µM.

And the GI50 (OVCAR-8 ovarian)?
Its GI50 is 2.61 µM.

What about the TGI (OVCAR-8 ovarian) of the same compound?
Its TGI is 10.7 µM.

What about the GI50 (PC-3 prostate) of the same compound?
The GI50 was 1.64 µM.

And the TGI (PC-3 prostate)?
The TGI was 8.52 µM.

And the GI50 (RPMI-8226 leukemia)?
Its GI50 is 1.42 µM.

What about the TGI (RPMI-8226 leukemia) of the same compound?
The TGI was 4.82 µM.

And the GI50 (RXF 393 renal)?
Its GI50 is 1.81 µM.

And the TGI (RXF 393 renal)?
The TGI was 4.47 µM.

And the GI50 (SF-268 CNS)?
The GI50 was 3.46 µM.

And the TGI (SF-268 CNS)?
Its TGI is 18 µM.

And the GI50 (SF-295 CNS)?
The GI50 was 2.87 µM.

And the TGI (SF-295 CNS)?
Its TGI is 12.5 µM.

What about the GI50 (SF-539 CNS) of the same compound?
The GI50 was 2.94 µM.

What about the TGI (SF-539 CNS) of the same compound?
The TGI was 8.31 µM.

What about the GI50 (SK-MEL-2 melanoma) of the same compound?
Its GI50 is 2.87 µM.

And the TGI (SK-MEL-2 melanoma)?
Its TGI is 7.73 µM.

And the GI50 (SK-MEL-28 melanoma)?
Its GI50 is 2.49 µM.

What about the TGI (SK-MEL-28 melanoma) of the same compound?
Its TGI is 6.82 µM.

And the GI50 (SK-MEL-5 melanoma)?
Its GI50 is 1.43 µM.

And the TGI (SK-MEL-5 melanoma)?
Its TGI is 2.77 µM.

What about the GI50 (SK-OV-3 ovarian) of the same compound?
The GI50 was 3.25 µM.

What about the TGI (SK-OV-3 ovarian) of the same compound?
The TGI was 13.3 µM.

What about the GI50 (SN12C renal) of the same compound?
The GI50 was 1.6 µM.

And the TGI (SN12C renal)?
Its TGI is 3.37 µM.

What about the GI50 (SNB-19 CNS) of the same compound?
The GI50 was 3.27 µM.

What about the TGI (SNB-19 CNS) of the same compound?
The TGI was greater than 64.8 µM.

And the GI50 (SNB-75 CNS)?
Its GI50 is 2.15 µM.

And the TGI (SNB-75 CNS)?
Its TGI is 12.6 µM.

What about the GI50 (SR leukemia) of the same compound?
Its GI50 is 2.14 µM.

What about the TGI (SR leukemia) of the same compound?
The TGI was 6.5 µM.

And the GI50 (SW-620 colon)?
The GI50 was 2.86 µM.

What about the TGI (SW-620 colon) of the same compound?
Its TGI is 15.1 µM.

What about the GI50 (T-47D breast) of the same compound?
The GI50 was 3.77 µM.

What about the TGI (T-47D breast) of the same compound?
Its TGI is 25.7 µM.

And the GI50 (TK-10 renal)?
The GI50 was 3.46 µM.

And the TGI (TK-10 renal)?
Its TGI is greater than 23.7 µM.

What about the GI50 (U251 CNS) of the same compound?
The GI50 was 1.78 µM.

And the TGI (U251 CNS)?
The TGI was 4.15 µM.

And the GI50 (UACC-257 melanoma)?
Its GI50 is 3.15 µM.

What about the TGI (UACC-257 melanoma) of the same compound?
The TGI was 12.6 µM.

What about the GI50 (UACC-62 melanoma) of the same compound?
The GI50 was 1.63 µM.

What about the TGI (UACC-62 melanoma) of the same compound?
Its TGI is 3.88 µM.

And the GI50 (UO-31 renal)?
Its GI50 is 1.93 µM.

What about the TGI (UO-31 renal) of the same compound?
The TGI was 10.3 µM.
